Our source for the IC50 values is US7547697B2, “Alkyl-pyridazine derivatives as 11b-HSD1 inhibitors” (Hoffmann-La Roche Inc., priority 2006, dated 2009).

This test has as its target T1, human 11beta-HSD1 (Homo sapiens, UniProt P28845).
T1 construct: expressed in transfected cells; host or cells: HEK293 cells (ATCC CRL-1573), transient transfection with pcDNA3 construct; microsomal fraction used
The experiment in a line: Microsome assay (cortisone to cortisol conversion, ELISA detection). The format is biochemical. The note with it: microsomes from HEK293 cells transiently expressing human 11beta-HSD1; cortisone 50-200 nM, NADPH 1 mM, 60 min at 37° C.; read-out: h 11-beta-HSD 1 IC50. Here is the method: The cDNA encoding the human 11beta-HSD1 protein was cloned into the expression vector pcDNA3 ([…]). This construct (for details see Alex Odermatt et al.; J Biol Chem., 1999, Vol. 274, Issue 40, 28762-28770) was used to transiently express the protein in HEK293 cells (ATCC number: CRL-1573, described in Graham, F. L., Smiley, J., Russell, W. C., Nairn, R.; (1977)) using lipofectamine. 48h after transfection cells were washed twice with ice-cold PBS (Phosphate buffered Saline). To 1 volume of cell suspension in PBS 2 volumes of ice-cold lysis buffer (50 mM Tris; pH 7.5; 1 mM EDTA; 100 mM NaCl) were added. The cells were lysed by Potter-homogenization (20 strokes). The resulting homogenate was sonicated with a tip sonicator (10% output; 2×30 sec.) and cleared by a low speed centrifugation (10 min×9000 g; 4° C.). The microsomal fraction was collected by a high speed centrifugation (60 min×110,000 g). […]
Microsomes isolated from HEK293 cells transiently expressing human 11beta-HSD1 (for details see above) were incubated in assay buffer (100 mM NaCl; 1 mM EDTA; 1 mM EGTA; 1 mM MgCl; 250 mM Sucrose; 20 mM Tris pH 7.4; Cortisone 50-200 nM and NADPH 1 mM) together with different concentrations of test substances. […] The amount of Cortisol produced in this assay was determined using a commercially available, ELISA-based Cortisol-detection kit (Distributed by Assay Design, Inc.). […]

T1 sequence (P28845 whole entry): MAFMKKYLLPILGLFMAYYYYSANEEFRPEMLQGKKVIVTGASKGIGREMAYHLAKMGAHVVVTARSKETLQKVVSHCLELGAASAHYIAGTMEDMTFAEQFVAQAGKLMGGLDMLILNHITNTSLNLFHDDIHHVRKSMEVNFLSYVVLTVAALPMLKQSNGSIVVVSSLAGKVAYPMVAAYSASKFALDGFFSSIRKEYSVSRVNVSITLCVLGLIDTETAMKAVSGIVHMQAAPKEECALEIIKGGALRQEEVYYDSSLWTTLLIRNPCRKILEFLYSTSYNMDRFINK

Broadly, the IC50 is the point on the concentration scale where inhibition reaches its midpoint. As to `CC(C)(C)Cc1cc2c(nn1)CCCCCC2` [Example 1, 3-(2,2-Dimethyl-propyl)-5,6,7,8,9,10-hexahydro-cycloocta[c]pyridazine], the IC50 came out at 6 nM.

Consider `CC(C)(C)Cc1cc2c(nn1)[C@@]1(C)CC[C@@H]2C1(C)C` [Example 3, (1S,8R)-5-(2,2-Dimethyl-propyl)-1,11,11-trimethyl-3,4-diaza-tricyclo[6.2.1.0^2,7]undeca-2,4,6-triene], for which the IC50 was 14 nM.
